Measured values published in patent US12024506B2, “Compounds” (Oxford University Innovation Limited, priority 2018, dated 2024).

Tests used:
[1] = molecular target: T1, GST-human KRas166 (G12V) GPPNHP (Homo sapiens, UniProt P01116, G12V); experiment: KRas small-molecule screening by SPR (Biacore T200); type: binding; settings: compound 100 uM, 5% DMSO buffer; immobilised GST-KRas166 (G12V) GPPNHP
T1 construct: made in house; host or cells: E. coli C41(DE3)
Method: For SPR assays pGEX-KRAS(G12V) plasmid was transformed into E. coli C41(DE3). Bacterial cells were cultured at 37° C. to an OD600 of 0.6 and induced with IPTG (final 0.1 mM) at 18° C. over night. The GST fusion proteins were extracted from bacteria pellets after cell disruption in 140 mM NaCl, 2.7 mM KCl, 10 mM NaH2PO4, 1.8 mM KH2PO4, 1 mM EDTA, 2 mM MgCl2 pH 7.4 and purified by glutathione-sepharose column chromatography (GE Healthcare), eluting with 50 mM Tris-HCl pH8.0, 10 mM reduced glutathione, 1 mM DTT, 2 mM MgCl2. The eluted proteins were dialysed against 50 mM Tris-HCl pH8.0, 1 mM DTT, 2 mM MgCl2 and concentrated to 10 mg/ml using a Biomax-30 ULTRAFREE-15 centrifugal filter device (Millipore). Purified KRAS protein was loaded with GPPNHP as described elsewhere (Pacold et al., 2000). Loaded protein was then purified by gel filtration on a HiLoad Superdex-75 HR column (GE Healthcare) in 1×PBS pH7.4, 5 mM MgCl2 and concentrated for storage.
Protocol for KRas Small-Molecule Screening and Affinity Measurements by SPR
To a previously immobilized CM5 chip (GE Healthcare BR-1005-30) with anti GST antibody via amine coupling method, GST in channel 1 and GST-human KRas166 (G12V) GPPNHP in channel 2 were immobilised. GST was immobilised between 2,000 and 5,000 Response units. KRAS166 (G12V) was immobilized between 10,000 to 15,000 Response Units.
In a 96 well plate, compounds were diluted in […], 5 mM MgCl2 and 5% DMSO Buffer to a final concentration of 100 uM. DCAl was used as positive control. Experiment also included a solvent correction curve for 5% DMSO. Screening and evaluation of the protein immobilization and the compounds screening was done accordingly to the BIACORE T200 control and evaluation software.
Calculations for how many response units are required for a 1:1 ratio of compound/protein interaction are shown below. • Protein immobilisation: 10,000 RU; average fragment 300 Da in size. • Rmax=(MWA/MWL)×RL×SM • MWA is the molecular weight of the analyte in Da • MWL is the molecular weight of the ligand in Da • RL is the immobilization level in RU • SM is the molar stoichiometry (assume 1:1) • Rmax=300/47,500×10,000×1 • Rmax=63 RU. Cell Viability Assay protocols Assay 1

[2] = tested on: DLD1 cells (ATCC CCL-221); experiment: Cell viability assay 1 (CellTiter-Glo), DLD1 cells; type: cell-based; settings: Homo sapiens, DLD-1 cells, 48 h, second value of the cell, read-out: Cell Viability DLD-1 (concentration that decreases cell viability by 50%)
Method: (§1) Cells (A549 ATCC CCL-185) are cultured in Dulbecco's Modified Eagle's Medium plus 10% foetal calf serum and 2 mM L-glutamine at 37° C., 5% CO2. Cells are plated onto white clear bottom 96-well plates (5000 cells/well in 200 μl media) and left to adhere overnight at 37° C., 5% CO2. Next day, test compound (1 μl at 200× concentration in 100% DMSO) is added to give final test compound concentration 1× in 0.5% DMSO. After 48 h of incubation at 37° C., 5% CO2, 20 μl CellTiter-Glo reagent (Promega G7572) is added into each well. Plates are incubated at room temperature with shaking for 30 min and then luminescence is read using a PheraStar plate reader. The concentration of compounds that decrease cell viability by 50% is calculated from dose response curves generated using Dotmatics data analysis software.
In the DLD1 cell assay, cells (ATCC CCL-221) are cultured in RPMI-1640 medium plus 10% foetal calf serum and 2 mM L-glutamine at 37° C., 5% CO2.

[3] = tested on: H358 cells (ATCC CRL-5807); experiment: Cell viability assay 1 (CellTiter-Glo), H358 cells; type: cell-based; settings: Homo sapiens, NCI-H358, 48 h, first value of the cell, read-out: Cell Viability H358 (concentration that decreases cell viability by 50%)
Method: as §1
In the H358 cell assay, cells (ATCC CRL-5807) are cultured in RPMI-1640 medium plus 10% foetal calf serum and 2 mM L-glutamine at 37° C., 5% CO2.

COc1cccc(-c2cccc3c2OC(CN(Cc2ccc(OCCN(C)C)cc2)CC2CCOCC2)CO3)n1 (stereo not drawn) [Example 32, [2-(4-{[[8-(6-Methoxy-pyridin-2-yl)-2,3-dihydro-benzo[1,4]dioxin-2-ylmethyl]-(tetrahydro-pyran-4-ylmethyl)-amino]-methyl}-phenoxy)-ethyl]-dimethyl-amine]
SPR Response Units [1]: 85 Response Units | IC50 [2]: 7 µM | IC50 [3]: 17 µM

COc1nc(-c2cccc3c2OCCO3)ccc1Nc1ccc(CC(=O)NCC2CCN(C)CC2)cc1 [Example 197, 2-{4-[6-(2,3-Dihydro-benzo[1,4]dioxin-5-yl)-2-methoxy-pyridin-3-ylamino]-phenyl}-N-(1-methyl-piperidin-4-ylmethyl)-acetamide]
SPR Response Units [1]: 453 Response Units | IC50 [2]: 15.9 µM | IC50 [3]: > 150 µM

COc1nc(-c2cccc3c2OCCO3)ccc1Nc1ccccc1C(=O)NCC1CCNCC1 [Example 150, 2-[6-(2,3-Dihydro-benzo[1,4]dioxin-5-yl)-2-methoxy-pyridin-3-ylamino]-N-piperidin-4-ylmethyl-benzamide]
IC50 [2]: 2.5 µM | IC50 [3]: 12 µM

c1cc2c(c(-c3ccc(Nc4ccc(CNCC5COCCN5)cc4)nn3)c1)OCCO2 (stereo not drawn) [Example 154, [6-(2,3-Dihydro-benzo[1,4]dioxin-5-yl)-pyridazin-3-yl]-(4-{[(morpholin-3-ylmethyl)-amino]-methyl}-phenyl)-amine]
SPR Response Units [1]: 59 Response Units

COc1cc(NC(=O)[C@@H]2CCNC2)cc(-c2cccc3c2OCCO3)n1 [Example 17, (R)-Pyrrolidine-3-carboxylic acid [2-(2,3-dihydro-benzo[1,4]dioxin-5-yl)-6-methoxy-pyridin-4-yl]-amide]
SPR Response Units [1]: 84 Response Units

CN(C)Cc1cccc(Nc2ccc(-c3cccc4c3OC(CNC(=O)C3CCOCC3)CO4)nc2)c1 (stereo not drawn) [Example 93]
SPR Response Units [1]: 39 Response Units

COc1nc(-c2cccc3c2OCCO3)ccc1Nc1cccc(C(=O)NCc2cccc(F)n2)c1 [Example 168, 3-[6-(2,3-Dihydro-benzo[1,4]dioxin-5-yl)-2-methoxy-pyridin-3-ylamino]-N-(6-fluoro-pyridin-2-ylmethyl)-benzamide]
SPR Response Units [1]: 23 Response Units

CN1CCN(Cc2ccc(C(=O)NCC3COc4cccc(-c5cn(C)cn5)c4O3)o2)CC1 (stereo not drawn) [Example 137, 5-(4-Methyl-piperazin-1-ylmethyl)-furan-2-carboxylic acid [8-(1-methyl-1H-imidazol-4-yl)-2,3-dihydro-benzo[1,4]dioxin-2-ylmethyl]-amide]
SPR Response Units [1]: 50 Response Units

COc1nc(Nc2cccc3c2OC(CNC(=O)c2ccc(CN4CCN(C)CC4)o2)CO3)ccc1NC(=O)[C@H]1CCCN1 (stereo partly drawn) [Example 131, (R)-Pyrrolidine-2-carboxylic acid{2-methoxy-6-[3-({[5-(4-methyl-piperazin-1-ylmethyl)-furan-2-carbonyl]-amino}-methyl)-2,3-dihydro-benzo[1,4]dioxin-5-ylamino]-pyridin-3-yl}-amide]
SPR Response Units [1]: 40 Response Units

CN(C)Cc1cccc(Nc2ccnc(-c3cccc4c3OC(CNC(=O)C3CCOCC3)CO4)c2)c1 (stereo not drawn) [Example 140, tetrahydro-pyran-4-carboxylic acid {8-[4-(3-dimethylaminomethyl-phenylamino)-pyridin-2-yl]-2,3-dihydro-benzo[1,4]dioxin-2-ylmethyl}-amide]
SPR Response Units [1]: 32 Response Units

CC(C)(C)OC(=O)NCc1ccc(C(=O)N2CCN(c3cccc4c3OCCO4)CC2)cc1 [Example 169, {4-[4-(2,3-Dihydro-benzo[1,4]dioxin-5-yl)-piperazine-1-carbonyl]-benzyl}-carbamic acid tert-butyl Ester]
SPR Response Units [1]: 25 Response Units

COc1nc(-c2cccc3c2O[C@H](CNC(=O)c2ccc(CN4CCN(C)CC4)o2)CO3)ccc1N [Example 87, 5-(4-Methyl-piperazin-1-ylmethyl)-furan-2-carboxylic acid [(R)-8-(5-amino-6-methoxy-pyridin-2-yl)-2,3-dihydro-benzo[1,4]dioxin-2-ylmethyl]-amide]
SPR Response Units [1]: 56 Response Units

COc1ccc(-c2cccc3c2OC(CNC(=O)c2ccc(CN4CCN(C)CC4)o2)CO3)cn1 (stereo not drawn) [Example 45a, 5-(4-Methyl-piperazin-1-ylmethyl)-furan-2-carboxylic acid [8-(6-methoxy-pyridin-3-yl)-2,3-dihydro-benzo[1,4]dioxin-2-ylmethyl]-amide]
SPR Response Units [1]: 90 Response Units

COc1cccc(-c2cccc3c2OC(CNC(=O)C2CCOCC2)CO3)n1 (stereo not drawn) [Example 45, Tetrahydro-pyran-4-carboxylic acid [8-(6-methoxy-pyridin-2-yl)-2,3-dihydro-benzo[1,4]dioxin-2-ylmethyl]-amide]
SPR Response Units [1]: 12 Response Units

COc1nc(-c2cccc3c2OCCO3)ccc1Nc1ccccc1C(=O)NCC1CCN(C(=O)OC(C)(C)C)CC1 [Example 152, 4-({2-[6-(2,3-dihydro-benzo[1,4]dioxin-5-yl)-2-methoxy-pyridin-3-ylamino]-benzoylamino}-methyl)-piperidine-1-carboxylic acid tert-butyl ester]
SPR Response Units [1]: 36 Response Units

COc1cccc(-c2cccc3c2OC(CNC(=O)CCN(C)C)CO3)n1 (stereo not drawn) [Example 47, 3-Dimethylamino-N-[8-(6-methoxy-pyridin-2-yl)-2,3-dihydro-benzo[1,4]dioxin-2-ylmethyl]-propionamide]
SPR Response Units [1]: 16 Response Units

CN1CCC(CC(=O)Nc2ccc(-c3cccc4c3O[C@H](CNC(=O)C3CCOCC3)CO4)nc2)CC1 [Example 92, Tetrahydro-pyran-4-carboxylic acid ((R)-8-{5-[2-(1-methyl-piperidin-4-yl)-acetylamino]-pyridin-2-yl}-2,3-dihydro-benzo[1,4]dioxin-2-ylmethyl)-amide]
SPR Response Units [1]: 7 Response Units

N[C@H]1CC[C@@H](NC(=O)Nc2ccnc(-c3cccc4c3OC(CNC(=O)C3CCOCC3)CO4)c2)C1 (stereo partly drawn) [Example 142, tetrahydro-pyran-4-carboxylic acid (8-{4-[3-((1R,3S)-3-amino-cyclopentyl)-ureido]-pyridin-2-yl}-2,3-dihydro-benzo[1,4]dioxin-2-ylmethyl)-amide]
SPR Response Units [1]: 26 Response Units

COc1nc(-c2cccc3c2OCCO3)ccc1Nc1cccc(C(=O)NCc2cn[nH]c2)c1 [Example 183, 3-[6-(2,3-Dihydro-benzo[1,4]dioxin-5-yl)-2-methoxy-pyridin-3-ylamino]-N-(1H-pyrazol-4-ylmethyl)-benzamide]
IC50 [2]: 8.4 µM | IC50 [3]: 15.5 µM

COc1cccc(-c2cccc3c2OC(CO)CO3)n1 (stereo not drawn) [Example 2, [8-(6-Methoxy-pyridin-2-yl)-2,3-dihydro-benzo[1,4]dioxin-2-yl]-methanol]
SPR Response Units [1]: 17 Response Units

COc1cc(NC(=O)[C@H]2CNCCO2)cc(-c2cccc3c2OCCO3)n1 [Example 18, (R)-Morpholine-2-carboxylic acid [2-(2,3-dihydro-benzo[1,4]dioxin-5-yl)-6-methoxy-pyridin-4-yl]-amide]
SPR Response Units [1]: 71 Response Units
